Values quoted from earlier work in patent publication US20090263333A1, “Pharmaceutical compounds and compositions” (Cipla Limited, priority 2004, published 2009).

Conditions: dose comparison with racemic salbutamol

For CC(C)(C)NC[C@H](O)c1ccc(O)c(CO)c1 [Levosalbutamol, levosalbutamol], the “efficacy relative to racemic salbutamol” value is given as “comparable efficacy at nearly one-fourth the dose of racemic salbutamol”.
